This passage reports IC50 results from US8471005B2 (Cephalon, Inc., priority 2008, dated 2013).

For one test, the target named is T1, ALK (Homo sapiens, UniProt Q9UM73).
T1 construct: host or cells: baculovirus expression system
The test is described as follows: ALK Kinase Assay (ELISA/TRF, PLC-γ substrate). It counts as biochemical. The note with it: ALK kinase inhibition, 1 μM ATP; read-out: ALK Potency. Summed up: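 PLC-γ substrate coated at 10 μg/mL in TBS; reaction started with 30 ng/ml ALK, run 15 min at 37° C. Phosphoproduct detected by TRF with Eu-N1-labeled PT66 anti-phosphotyrosine antibody. IC50 from sigmoidal variable-slope fit of percent inhibition versus log concentration.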

For the next test, the target named is T2, JAK2 (Homo sapiens, UniProt O60674).
T2 construct: host or cells: baculovirus expression system
Put plainly: Recombinant Human JAK2 Kinase Assay (TRF). It counts as biochemical. The note with it: JAK2 kinase inhibition, 0.2 μM ATP; read-out: JAK2 Potency. Summed up: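 Europium-labelled PY100 antibody reported tyrosine phosphorylation of a Neutravidin-captured biotinyl 15-mer peptide by JAK2 (baculovirus-expressed, 15 ng/ml). Conditions: 20 mM HEPES pH 7.2, 0.2 μM ATP, 1 mM MnCl2, 0.1% BSA, DMSO 2.5% final, 20 min at room temperature.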

T2 sequence (O60674 whole entry): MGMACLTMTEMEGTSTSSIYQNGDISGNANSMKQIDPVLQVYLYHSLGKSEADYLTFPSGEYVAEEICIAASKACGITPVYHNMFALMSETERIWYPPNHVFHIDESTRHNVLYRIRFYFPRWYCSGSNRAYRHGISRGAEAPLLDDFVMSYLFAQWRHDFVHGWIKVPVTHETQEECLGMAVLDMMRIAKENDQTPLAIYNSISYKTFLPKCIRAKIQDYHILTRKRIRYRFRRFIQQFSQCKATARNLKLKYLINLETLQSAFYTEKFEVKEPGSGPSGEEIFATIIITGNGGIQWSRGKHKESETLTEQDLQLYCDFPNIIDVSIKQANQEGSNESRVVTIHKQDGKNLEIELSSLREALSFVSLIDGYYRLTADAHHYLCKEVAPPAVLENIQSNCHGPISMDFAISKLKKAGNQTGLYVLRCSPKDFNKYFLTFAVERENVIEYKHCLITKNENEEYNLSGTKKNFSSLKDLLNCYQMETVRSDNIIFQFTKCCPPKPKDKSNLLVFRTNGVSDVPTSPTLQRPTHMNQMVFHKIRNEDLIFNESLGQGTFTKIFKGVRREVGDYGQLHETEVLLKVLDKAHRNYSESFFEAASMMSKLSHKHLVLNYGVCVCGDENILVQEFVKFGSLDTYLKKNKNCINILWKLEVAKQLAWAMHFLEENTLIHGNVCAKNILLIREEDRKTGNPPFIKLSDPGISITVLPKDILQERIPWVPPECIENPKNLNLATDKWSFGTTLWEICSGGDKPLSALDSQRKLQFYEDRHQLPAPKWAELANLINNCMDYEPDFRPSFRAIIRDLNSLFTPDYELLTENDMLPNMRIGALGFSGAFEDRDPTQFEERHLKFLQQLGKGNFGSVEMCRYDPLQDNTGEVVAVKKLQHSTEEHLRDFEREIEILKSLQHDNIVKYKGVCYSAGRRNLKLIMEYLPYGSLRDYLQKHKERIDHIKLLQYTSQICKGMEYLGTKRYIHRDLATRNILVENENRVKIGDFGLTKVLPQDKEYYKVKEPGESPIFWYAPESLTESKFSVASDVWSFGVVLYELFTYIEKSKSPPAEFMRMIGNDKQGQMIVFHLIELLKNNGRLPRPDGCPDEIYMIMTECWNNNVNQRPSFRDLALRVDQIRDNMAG
T1 sequence (Q9UM73 19-1620): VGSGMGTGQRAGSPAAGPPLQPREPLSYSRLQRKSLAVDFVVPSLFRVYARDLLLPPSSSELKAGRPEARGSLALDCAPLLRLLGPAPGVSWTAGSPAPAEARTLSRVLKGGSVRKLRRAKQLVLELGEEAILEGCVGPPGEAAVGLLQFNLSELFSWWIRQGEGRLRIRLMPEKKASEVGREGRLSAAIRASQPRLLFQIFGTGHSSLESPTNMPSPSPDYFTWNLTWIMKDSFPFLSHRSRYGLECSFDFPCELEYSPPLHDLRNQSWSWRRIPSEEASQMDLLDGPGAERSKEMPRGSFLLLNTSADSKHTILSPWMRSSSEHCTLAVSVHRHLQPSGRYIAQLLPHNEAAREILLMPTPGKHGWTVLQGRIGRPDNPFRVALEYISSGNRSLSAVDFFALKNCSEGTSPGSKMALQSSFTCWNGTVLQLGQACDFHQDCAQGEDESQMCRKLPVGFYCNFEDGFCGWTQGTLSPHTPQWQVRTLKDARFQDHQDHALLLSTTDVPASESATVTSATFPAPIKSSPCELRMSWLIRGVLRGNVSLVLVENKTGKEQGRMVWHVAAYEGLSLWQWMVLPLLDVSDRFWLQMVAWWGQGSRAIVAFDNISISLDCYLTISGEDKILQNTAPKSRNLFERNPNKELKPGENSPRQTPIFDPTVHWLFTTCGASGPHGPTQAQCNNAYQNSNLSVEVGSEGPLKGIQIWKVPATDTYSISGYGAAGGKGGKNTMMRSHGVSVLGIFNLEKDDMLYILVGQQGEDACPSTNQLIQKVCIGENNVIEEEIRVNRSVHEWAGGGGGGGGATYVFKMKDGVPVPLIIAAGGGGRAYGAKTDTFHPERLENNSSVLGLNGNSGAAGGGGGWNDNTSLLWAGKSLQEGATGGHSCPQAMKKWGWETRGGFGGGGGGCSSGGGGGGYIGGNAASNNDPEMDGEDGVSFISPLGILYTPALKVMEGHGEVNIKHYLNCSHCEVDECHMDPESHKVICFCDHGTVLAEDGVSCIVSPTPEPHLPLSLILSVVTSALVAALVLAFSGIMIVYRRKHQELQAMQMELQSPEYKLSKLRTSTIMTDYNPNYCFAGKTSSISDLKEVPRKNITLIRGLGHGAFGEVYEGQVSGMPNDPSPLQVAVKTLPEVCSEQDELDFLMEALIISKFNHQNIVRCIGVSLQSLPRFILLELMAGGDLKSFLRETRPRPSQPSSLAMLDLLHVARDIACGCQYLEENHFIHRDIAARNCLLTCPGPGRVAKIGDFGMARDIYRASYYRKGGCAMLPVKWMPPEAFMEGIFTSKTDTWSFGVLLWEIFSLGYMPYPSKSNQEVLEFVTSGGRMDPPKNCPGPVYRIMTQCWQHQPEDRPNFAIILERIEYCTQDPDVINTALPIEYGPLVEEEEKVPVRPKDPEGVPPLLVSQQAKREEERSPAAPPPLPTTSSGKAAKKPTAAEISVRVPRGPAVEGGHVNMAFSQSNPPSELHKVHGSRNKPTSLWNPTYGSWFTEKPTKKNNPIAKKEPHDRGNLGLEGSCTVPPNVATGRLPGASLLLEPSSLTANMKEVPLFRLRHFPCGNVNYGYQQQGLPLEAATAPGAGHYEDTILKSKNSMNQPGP

For `COc1ccc(-c2ccc3cnc(Nc4ccc(OCCN5CCOCC5)cc4)nn23)cn1` [Example 1103, [7-(6-Methoxy-pyridin-3-yl)-pyrrolo[2,1-f][1,2,4]triazin-2-yl]-[4-(2-morpholin-4-yl-ethoxy)-phenyl]-amine], the results for the IC50 on ALK and on JAK2 were 100 to 1000 nM and less than 100 nM, respectively.

Take `COc1ccc(-c2ccc3cnc(Nc4ccc(N5CCN(CCO)CC5)cc4)nn23)cn1` [Example 1104, 2-(4-{4-[7-(6-Methoxy-pyridin-3-yl)-pyrrolo[2,1-f][1,2,4]triazin-2-ylamino]-phenyl}-piperazin-1-yl)-ethanol]: the values for the IC50 on ALK and at JAK2 were 100 to 1000 nM and less than 100 nM, respectively.

Turning to `COc1ccc(-c2ccc3cnc(Nc4ccc(N5CCOCC5)cc4)nn23)cn1` [Example 1105, [7-(6-Methoxy-pyridin-3-yl)-pyrrolo[2,1-f][1,2,4]triazin-2-yl]-(4-morpholin-4-yl-phenyl)-amine], the IC50 on ALK is 1000 to 10000 nM; on JAK2, less than 100 nM.

Take `COc1ccc(-c2ccc3cnc(Nc4ccc(N5CCOCC5)nc4)nn23)cn1` [Example 1106]: the IC50 is 1000 to 10000 nM on ALK and less than 100 nM on JAK2.

Take `COc1ccccc1-c1c(C)c(C)c2cnc(Nc3ccc(N4CCN(C)CC4)cc3)nn12` [Example 1107]: the IC50 at ALK and on JAK2 was less than 100 nM each time.

As for `COc1ccccc1-c1ccc2cnc(Nc3ccc(N4CCN(C)CC4)nc3)nn12` [Example 1108, [7-(2-Methoxy-phenyl)-pyrrolo[2,1-f][1,2,4]triazin-2-yl]-[6-(4-methyl-piperazin-1-yl)-pyridin-3-yl]-amine], the IC50 is 100 to 1000 nM on ALK and less than 100 nM on JAK2.

As for `COc1ccc(-c2ccc3cnc(Nc4ccc(N5CCN(C)CC5)nc4)nn23)cn1` [Example 1109, [7-(6-Methoxy-pyridin-3-yl)-pyrrolo[2,1-f][1,2,4]triazin-2-yl]-[6-(4-methyl-piperazin-1-yl)-pyridin-3-yl]-amine], the IC50 at ALK is 100 to 1000 nM; at JAK2, less than 100 nM.

On to `CN1CCN(c2ccc(Nc3ncc4ccc(-c5ccc(S(C)(=O)=O)cc5)n4n3)cn2)CC1` [Example 1110, [7-(4-Methanesulfonyl-phenyl)-pyrrolo[2,1-f][1,2,4]triazin-2-yl]-[6-(4-methyl-piperazin-1-yl)-pyridin-3-yl]-amine], for which the values for the IC50 at ALK and at JAK2 were 100 to 1000 nM and less than 100 nM, respectively.

For the compound `COc1ccccc1-c1ccc2cnc(Nc3ccn(CC(=O)N4CCOCC4)n3)nn12` [Example 1111, 2-{3-[7-(2-Methoxy-phenyl)-pyrrolo[2,1-f][1,2,4]triazin-2-ylamino]-pyrazol-1-yl}-1-morpholin-4-yl-ethanone], the figures for the IC50 on ALK and on JAK2 were 100 to 1000 nM and less than 100 nM, respectively.

On to `COc1ccc(-c2ccc3cnc(Nc4ccn(CC(=O)N5CCOCC5)n4)nn23)cn1` [Example 1112, 2-{3-[7-(6-Methoxy-pyridin-3-yl)-pyrrolo[2,1-f][1,2,4]triazin-2-ylamino]-pyrazol-1-yl}-1-morpholin-4-yl-ethanone], for which the IC50 on ALK was more than 10000 nM; on JAK2 it was less than 100 nM.

For `COc1ccccc1-c1ccc2cnc(Nc3cn(CC(=O)N4CCOCC4)cn3)nn12` [Example 1113, 2-{4-[7-(2-Methoxy-phenyl)-pyrrolo[2,1-f][1,2,4]triazin-2-ylamino]-imidazol-1-yl}-1-morpholin-4-yl-ethanone], the IC50 is 1000 to 10000 nM on ALK and less than 100 nM on JAK2.

For the compound `COc1ccccc1-c1ccc2cnc(Nc3ccn(CC(=O)N4CCN(C)CC4)n3)nn12` [Example 1114, 2-{3-[7-(2-Methoxy-phenyl)-pyrrolo[2,1-f][1,2,4]triazin-2-ylamino]-pyrazol-1-yl}-1-(4-methyl-piperazin-1-yl)-ethanone], the values for the IC50 on ALK and at JAK2 were 100 to 1000 nM and less than 100 nM, respectively.

Regarding `COc1ccc(-c2ccc3cnc(Nc4ccn(CC(=O)N5CCN(C)CC5)n4)nn23)cn1` [Example 1115, 2-{3-[7-(6-Methoxy-pyridin-3-yl)-pyrrolo[2,1-f][1,2,4]triazin-2-ylamino]-pyrazol-1-yl}-1-(4-methyl-piperazin-1-yl)-ethanone], the values for the IC50 on ALK and at JAK2 were 1000 to 10000 nM and less than 100 nM, respectively.
